# Reference: patent US6218393A, “Anthranilic acid derivatives as multi drug resistance modulators” (priority 1997, dated 2001)
# Columns and labels:
# AR 1.0 cells [1] = assay: Drug accumulation assay: daunorubicin accumulation in AR 1.0 cells; format: cell-based; conditions: Mus musculus, 100% = accumulation with verapamil 100 μM, 1 hr, 37° C.
# How it was run: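 AR 1.0 is the MDR-resistant subline of EMT6 mouse mammary carcinoma, grown in RPMI 1640 with 10% foetal calf serum and 2 mM glutamine at 37 °C, 5% CO2. Cells were seeded 48 h before the daunorubicin accumulation assay.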
# AR 1.0 cells [2] = assay: Potentiation index with doxorubicin titration; format: cell-based, mouse; conditions: for Potentiation Index at RMA concentration 500 nM: Table C2, RMA 500 nM; for Potentiation Index at RMA concentration 30 nM: Table C2, RMA 30 nM; for Potentiation Index at RMA concentration 100 nM: Table C2, RMA 100 nM; for Potentiation Index at RMA concentration 300 nM: Table C2, RMA 300 nM; for Potentiation Index at RMA concentration 10 nM: Table C2, RMA 10 nM
# How it was run: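 MDR-resistant mouse EMT6 subline AR 1.0 grown four days with a doxorubicin titration (0.263 nM-17.24 μM) plus a fixed compound concentration; proliferation by sulphorhodamine B. Potentiation index derived from doxorubicin IC50 alone versus with compound.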
# AR 1.0 cells [3] = assay: Potentiation of doxorubicin toxicity: proliferation assay (sulphorhodamine B); format: cell-based, mouse
# Source text: (a) Selected compounds of formula (I) were examined for their ability to potentiate the toxicity of doxorubicin in AR 1.0 cells.
# [4] = Mus musculus, 96 h, compound alone, four day proliferation, read-out: Compound Toxicity (IC50)
# [5] = with fixed doxorubicin 0.34 μm, four days, 5760 min, read-out: Toxicity with Cytotoxic Agent (IC50)
Structure (SMILES),IC50 (AR 1.0 cells [1]) [nM],Potentiation Index at RMA concentration 500 nM (AR 1.0 cells [2]),IC50 (AR 1.0 cells [3]; [4]) [nM],IC50 (AR 1.0 cells [3]; [5]) [nM],Potentiation Index at RMA concentration 30 nM (AR 1.0 cells [2]),Potentiation Index at RMA concentration 100 nM (AR 1.0 cells [2]),Potentiation Index at RMA concentration 300 nM (AR 1.0 cells [2]),Potentiation Index at RMA concentration 10 nM (AR 1.0 cells [2])
"COc1cc2c(cc1OC)CN(CCNC(=O)c1c(Cl)cccc1NC(=O)c1ccc(C(C)C)cc1)CC2 [compound 9405, 2-(4-Isopropyl-benzoylamino)-N-[2-(6,7-dimethoxy-3,4-dihydro-1H-isoquinolin-2-yl)-ethyl]-6-chioro-benzamide]",300,8.6,22000,90,,,,
"COc1cc2c(cc1OC)CN(CCc1ccc(NC(=O)c3ccccc3NC(=O)c3ccc(Cl)cc3)cc1)CC2 [compound 9496, 2-(4-chloro-benzoylamino)-N-{4-[2-(6,7-dimethoxy-3,4-dihydro-1H-isoquinolin-2-yl)-ethyl]-phenyl}-benzamide]",480,825,4000,30,1.6,19,254,
COc1cc2c(cc1OC)CN(CCCNC(=O)c1ccccc1NC(=O)c1ccc(C3CCCCC3)cc1)CC2 [compound 9466],1400,60,6000,50,,,30,
"COc1cc2c(cc1OC)CN(CCc1ccc(NC(=O)c3ccccc3NC(=O)c3ccncc3)cc1)CC2 [compound 9483, N-(2-{4-[2-(6,7-Dimethoxy-3,4-dihydro-1H-isoquinolin-2-yl)-ethyl]-phenylcarbamoyl}-phenyl}-isonicotinamide]",1700,24,8500,350,,,14,
"COc1cc2c(cc1OC)CN(CCc1ccc(NC(=O)c3ccccc3NC(=O)c3ccc(Cl)c(Cl)c3)cc1)CC2 [compound 9536, 2-(3,4-Dichloro-benzoylamino)-N-{4-[2-(6,7-dimethoxy-3,4-dihydro-1H-isoquinolin-2-yl)-ethyl]-phenyl}-benzamide]",450,,2650,15,,32,128,
"COc1cc2c(cc1OC)CN(CCNC(=O)c1ccccc1NC(=O)c1ccc(OCc3ccccc3)cc1)CC2 [compound 9460, 2-(4-Benzyloxy-benzoylamino)-N-[2-(6,7-dimethoxy-3,4-dihydro-1H-isoquinolin-2-yl)-ethyl]-benzamide]",1000,36,7500,180,,,18,
"COc1cccc(C(=O)Nc2ccccc2C(=O)Nc2ccc(CCN3CCc4cc(OC)c(OC)cc4C3)cc2)c1 [compound 9517, 2-(3-Methoxy-benzoclamino)-N-{4-[2-(6,7-dimethoxy-3,4-dihydro-1H-isoquinolin-2-yl)-ethyl]-phenyl}-benzamide]",400,120,2000,50,,,40,
"COc1cc2c(cc1OC)CN(CCc1ccc(NC(=O)c3ccccc3NC(=O)c3ccccc3F)cc1)CC2 [compound 9489, 2-(2-Fluoro-benzoylamino)-N-{4-[2-(6,7-dimethoxy-3,4-dihydro-1H-isoquinolin-2-yl)-ethyl]-phenyl}-benzamide]",150,303,7000,50,,77,192,
"COc1cc2c(cc1OC)CN(CCc1ccc(NC(=O)c3ccccc3NC(=O)c3ccc(C)nc3)cc1)CC2 [compound 9557, N-(2-{4-[2-(6,7-Dimethoxy-3,4-dihydro-1H isoquinolin-2-yl)-ethyl]-phenylcarbamoyl}phenyl)-6-methyl-nicotinamide]",12,,9000,20,,100,,1.2
"COc1cc2c(cc1OC)CN(CCc1ccc(NC(=O)c3ccccc3NC(=O)c3cccc(C)c3)cc1)CC2 [compound 9503, 2-(3-Methyl-benzoylamino)-N-{4-[2-(6,7-dimethoxy-3,4-dihydro-1H-isoquinolin-2-yl)-ethyl]-phenyl}-benzamide]",2000,77,3500,90,,,36,
"COc1cc2c(cc1OC)CN(CCNC(=O)c1ccccc1NC(=O)c1ccc(Cc3ccccc3)cc1)CC2 [compound 9442, 2-(4-Benzyl-benzoylamino)-N-[2-(6,7-dimethoxy-3,4-dihydro-1H-isoquinolin-2-yl)-ethyl]-benzamide]",1000,67,7200,50,,,27,
"COc1cc2c(cc1OC)CN(CCNC(=O)c1ccc(F)cc1NC(=O)c1ccc(C(C)C)cc1)CC2 [compound 9349, 2-(4-Isopropyl-benzoylamino)-N-[2-(6,7-dimethoxy-3,4-dihydro-1H-isoquinolin-2-yl)-ethyl]-4-fluoro-benzamide]",300,22,5500,140,,,,
"COc1cc2c(cc1OC)CN(CCc1ccc(NC(=O)c3cc(OC)c(OC)cc3NC(=O)c3cnc4ccccc4n3)cc1)CC2 [compound 9573, Quinoxaline-2-carboxylic acid (2-{4-[2-(6,7-dimethoxy-3,4-dihydro-1H-isoquinolin-2-yl)-ethyl]-phenylcarbamoyl}-4,5-dimethoxy-phenyl)-amide]",9.5,,4000,,94,100,,83
"COc1cc2c(cc1OC)CN(Cc1ccc(NC(=O)c3ccccc3NC(=O)c3cnc4ccccc4n3)cc1)CC2 [compound 9572, Quinoxaline-2-carboxylic acid {2-[4-(6,7-dimethoxy-3,4-dihydro-1H-isoquinolin-2-ylmethyl)-phenylcarbamoyl}-phenyl}-amide]",53,,1700,14,25,83,,2.7

# Continued, in another order:
IC50 (AR 1.0 cells [1]) [nM],Structure (SMILES),Potentiation Index at RMA concentration 500 nM (AR 1.0 cells [2]),IC50 (AR 1.0 cells [3]; [4]) [nM],IC50 (AR 1.0 cells [3]; [5]) [nM],Potentiation Index at RMA concentration 30 nM (AR 1.0 cells [2]),Potentiation Index at RMA concentration 100 nM (AR 1.0 cells [2]),Potentiation Index at RMA concentration 300 nM (AR 1.0 cells [2]),Potentiation Index at RMA concentration 10 nM (AR 1.0 cells [2])
600,"COc1cc2c(cc1OC)CN(CCNC(=O)c1cc(Cl)ccc1NC(=O)c1ccc(C(C)C)cc1)CC2 [compound 9354, 2-(4-Isopropyl-benzoylamino)-N-[2-(6,7-dimethoxy-3,4-dihydro-1H-isoquinolin-2-yl)-ethyl]-5-chioro-benzamide]",20,8000,150,,,,
410,"COc1cc2c(cc1OC)CN(CCc1ccc(NC(=O)c3ccccc3NC(=O)c3ccccc3OC)cc1)CC2 [compound 9477, 2-(2-Methoxy-benzoylamino)-N-{4-[2-(617-dimethoxy-3,4-dihydro-1H-isoquinolin-2-yl)-ethyl]-phenyl}-benzamide]",63,4000,,,,29,
20,"COc1cc2c(cc1OC)CN(CCc1ccc(NC(=O)c3ccc([N+](=O)[O-])cc3NC(=O)c3cnc4ccccc4n3)cc1)CC2 [compound 9541, Quinoxaline-2-carboxylic acid (2-{4-(2-(6,7-dimethoxy-3,4-dihydro-1H-isoquinolin-2-yl)-ethyl]-phenylcarbamoyl}-5-nitro-phenyl)-amide]",,860,6,150,160,160,75
200,"COc1cc2c(cc1OC)CN(CCc1ccc(NC(=O)c3ccccc3NC(=O)c3cccs3)cc1)CC2 [compound 9471, Thiophene-2-carboxylic acid (2-{4-[2-(6,7-dimethoxy-3,4-dihydro-1H-isoquinolin-2-yl)-ethyl]-phenylcarbamoyl}-phenyl)-amide]",230,2600,,,,115,
400,"CCCc1ccc(C(=O)Nc2ccccc2C(=O)NCCN2CCc3cc(OC)c(OC)cc3C2)cc1 [compound 9297, 2-(4-Propyl-benzoylamino)-N-[2-(6,7-dimethoxy-3,4-dihydro-1H-isoquinolin-2-yl)-ethyl]-benzamide]",,18000,330,,,16,
260,"COc1cc2c(cc1OC)CN(CCc1ccc(NC(=O)c3ccccc3NC(=O)c3ccc(C)cc3)cc1)CC2 [compound 9504, 2-(4-Methyl-benzoylamino)-N-{4-[2-(6,7-dimethoxy-3,4-dihydro-1H-isoquinolin-2-yl)-ethyl]-phenyl}-benzamide]",267,5000,60,,34,150,
19,"COc1cc2c(cc1OC)CN(CCc1ccc(NC(=O)c3cc(F)ccc3NC(=O)c3cnc4ccccc4c3)cc1)CC2 [compound 9574, Quinoline-3-carboxylic acid (2-{4-[2-(6,7-dimethoxy-3,4-dihydro-1H-isoquinolin-2-yl)-ethyl]-phenylcarbamoyl}-4-fluoro-phenyl)-amide]",,320,,60,94,,16
